Results published in ChEMBL document CHEMBL1201862, “PubChem BioAssay data set” (2004).
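Briefly, cells in 96-well plates were exposed to five compound concentrations for 48 h, and endpoints were estimated by linear interpolation. GI50 is the concentration that inhibits growth by half.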 Calls of active or inactive are those of the source. Cut-off read from the data, not from the text of the source: active = GI50 up to about 1.1 µM and inactive = higher.

Columns and labels:
Assay in all cases: NCI-60 cell line screen, 48 h
786-0 = test system: 786-0
A549 = test system: A549
BT-549 = test system: BT-549
EKVX = test system: EKVX
HCT-15 = test system: HCT-15
HT-29 = test system: HT-29
KM12 = test system: KM12
M14 = test system: M14
MDA-MB-231 = test system: MDA-MB-231
MDA-MB-435 = test system: MDA-MB-435
Malme-3M = test system: Malme-3M
NCI-H226 = test system: NCI-H226
NCI-H23 = test system: NCI-H23
OVCAR-3 = test system: OVCAR-3
SF-295 = test system: SF-295
SK-MEL-28 = test system: SK-MEL-28
SK-MEL-2 = test system: SK-MEL-2
SK-OV-3 = test system: SK-OV-3
SR = test system: SR

## Cc1ccc2nc(CN3CCCC(O)C3)cc(=O)n2c1 (stereo not drawn)
786-0
  GI50: > 100 µM (inactive)
A549
  GI50: > 100 µM (inactive)
BT-549
  GI50: > 100 µM (inactive)
EKVX
  GI50: > 100 µM (inactive)
HCT-15
  GI50: > 100 µM
HT-29
  GI50: > 100 µM (inactive)
KM12
  GI50: > 100 µM (inactive)
M14
  GI50: > 100 µM (inactive)
MDA-MB-231
  GI50: > 100 µM (inactive)
MDA-MB-435
  GI50: > 100 µM (inactive)
Malme-3M
  GI50: > 100 µM (inactive)
NCI-H226
  GI50: > 100 µM (inactive)
NCI-H23
  GI50: > 100 µM (inactive)
OVCAR-3
  GI50: > 100 µM (inactive)
SF-295
  GI50: > 100 µM (inactive)
SK-MEL-28
  GI50: > 100 µM (inactive)
SK-MEL-2
  GI50: > 100 µM (inactive)
SK-OV-3
  GI50: > 100 µM (inactive)
SR
  GI50: > 100 µM (inactive)

## Nc1nc(I)nc2c1ncn2C1OC(COS(N)(=O)=O)C(O)C1O (stereo not drawn)
786-0
  GI50: < 0.0106 µM (active)
A549
  GI50: 0.0275 µM (active)
BT-549
  GI50: < 0.0108 µM (active)
EKVX
  GI50: < 0.0121 µM (active)
HCT-15
  GI50: 0.0176 µM
HT-29
  GI50: < 0.0106 µM (active)
KM12
  GI50: < 0.01 µM (active)
M14
  GI50: < 0.0104 µM (active)
MDA-MB-231
  GI50: < 0.01 µM (active)
MDA-MB-435
  GI50: < 0.01 µM (active)
Malme-3M
  GI50: < 0.01 µM (active)
NCI-H226
  GI50: < 0.01 µM (active)
NCI-H23
  GI50: < 0.01 µM (active)
OVCAR-3
  GI50: < 0.01 µM (active)
SF-295
  GI50: 0.0393 µM (active)
SK-MEL-28
  GI50: < 0.01 µM (active)
SK-MEL-2
  GI50: < 0.01 µM (active)
SK-OV-3
  GI50: < 0.0166 µM (active)
SR
  GI50: < 0.01 µM (active)

## CCOC(=O)NC(=S)NC(C)c1ccccc1 (stereo not drawn)
786-0
  GI50: > 100 µM (inactive)
A549
  GI50: > 100 µM (inactive)
BT-549
  GI50: > 100 µM (inactive)
EKVX
  GI50: > 100 µM (inactive)
HCT-15
  GI50: > 100 µM
HT-29
  GI50: > 100 µM (inactive)
KM12
  GI50: > 100 µM (inactive)
M14
  GI50: > 100 µM (inactive)
MDA-MB-231
  GI50: > 100 µM (inactive)
MDA-MB-435
  GI50: > 100 µM (inactive)
Malme-3M
  GI50: > 100 µM (inactive)
NCI-H226
  GI50: > 100 µM (inactive)
NCI-H23
  GI50: > 100 µM (inactive)
OVCAR-3
  GI50: > 100 µM (inactive)
SF-295
  GI50: > 100 µM (inactive)
SK-MEL-28
  GI50: > 100 µM (inactive)
SK-MEL-2
  GI50: > 100 µM (inactive)
SK-OV-3
  GI50: > 100 µM (inactive)
SR
  GI50: 56.6 µM (inactive)

## COc1ccc(/N=N/c2ccc3oc(=O)c(C(=O)Nc4ccccc4)cc3c2)cc1
786-0
  GI50: > 10 µM (inactive)
A549
  GI50: > 10 µM (inactive)
BT-549
  GI50: > 10 µM (inactive)
EKVX
  GI50: > 10 µM (inactive)
HCT-15
  GI50: > 9.23 µM
HT-29
  GI50: > 10 µM (inactive)
KM12
  GI50: > 10 µM (inactive)
M14
  GI50: > 10 µM (inactive)
MDA-MB-231
  GI50: > 10 µM (inactive)
MDA-MB-435
  GI50: > 10 µM (inactive)
Malme-3M
  GI50: > 10 µM (inactive)
NCI-H226
  GI50: > 10 µM (inactive)
NCI-H23
  GI50: > 10 µM (inactive)
OVCAR-3
  GI50: > 10 µM (inactive)
SF-295
  GI50: > 10 µM (inactive)
SK-MEL-28
  GI50: > 10 µM (inactive)
SK-MEL-2
  GI50: > 10 µM (inactive)
SK-OV-3
  GI50: > 10 µM (inactive)
SR
  GI50: > 10 µM (inactive)

## CCN(CC)CCCNc1ccc([N+](=O)[O-])c2nc3ccc(OC)cc3c(N)c12
786-0
  GI50: 1.44 µM (inactive)
A549
  GI50: 1.86 µM (inactive)
BT-549
  GI50: 1.53 µM (inactive)
EKVX
  GI50: > 10 µM (inactive)
HCT-15
  GI50: 1.72 µM
HT-29
  GI50: 1.77 µM (inactive)
KM12
  GI50: 1.57 µM (inactive)
M14
  GI50: > 4.41 µM (inactive)
MDA-MB-231
  GI50: 1.7 µM (inactive)
MDA-MB-435
  GI50: 1.62 µM (inactive)
Malme-3M
  GI50: > 10 µM (inactive)
NCI-H226
  GI50: > 10 µM (inactive)
NCI-H23
  GI50: 2.29 µM (inactive)
OVCAR-3
  GI50: > 4.46 µM (inactive)
SF-295
  GI50: 1.82 µM (inactive)
SK-MEL-28
  GI50: > 10 µM (inactive)
SK-MEL-2
  GI50: > 9.33 µM (inactive)
SK-OV-3
  GI50: > 3.92 µM (inactive)
SR
  GI50: 1.51 µM (inactive)

## O=C1Nc2c(Cl)cc(Cl)cc2C1=O
786-0
  GI50: 17.3 µM (inactive)
A549
  GI50: 19.3 µM (inactive)
BT-549
  GI50: 18 µM (inactive)
EKVX
  GI50: 14.6 µM (inactive)
HCT-15
  GI50: 20.6 µM
HT-29
  GI50: 27.4 µM (inactive)
KM12
  GI50: 30.5 µM (inactive)
M14
  GI50: 19.6 µM (inactive)
MDA-MB-231
  GI50: 21.2 µM (inactive)
MDA-MB-435
  GI50: 4.27 µM (inactive)
Malme-3M
  GI50: 1.94 µM (inactive)
NCI-H226
  GI50: 18.5 µM (inactive)
NCI-H23
  GI50: 23.5 µM (inactive)
OVCAR-3
  GI50: 20.3 µM (inactive)
SF-295
  GI50: 17.1 µM (inactive)
SK-MEL-28
  GI50: 17.7 µM (inactive)
SK-MEL-2
  GI50: 13.9 µM (inactive)
SK-OV-3
  GI50: 77.4 µM (inactive)
SR
  GI50: 12.2 µM (inactive)

## CC1=CC(=O)[C@@H](O)[C@]2(C)[C@H]3[C@@]4(O)OC[C@]35[C@H]([C@@H](C)[C@H]4O)[C@@H](OC(=O)C(C)(C)CO)C(=O)O[C@@H]5C[C@@H]12
786-0
  GI50: 0.16 µM (active)
A549
  GI50: 2.51 µM (inactive)
BT-549
  GI50: 0.0428 µM (active)
EKVX
  GI50: 0.741 µM (active)
HCT-15
  GI50: 0.292 µM
HT-29
  GI50: 0.207 µM (active)
KM12
  GI50: < 0.0271 µM (active)
M14
  GI50: < 0.0431 µM (active)
MDA-MB-231
  GI50: 0.363 µM (active)
MDA-MB-435
  GI50: 0.12 µM (active)
Malme-3M
  GI50: < 0.01 µM (active)
NCI-H226
  GI50: < 0.0216 µM (active)
NCI-H23
  GI50: < 0.0179 µM (active)
OVCAR-3
  GI50: < 0.0231 µM (active)
SF-295
  GI50: 0.229 µM (active)
SK-MEL-28
  GI50: 0.0478 µM (active)
SK-MEL-2
  GI50: < 0.0453 µM (active)
SK-OV-3
  GI50: 4.31 µM (inactive)
SR
  GI50: 0.0155 µM (active)
